{"source": "patent US8614246B2", "about": "“Indole derivatives for treating neurodegenerative diseases” (Centre National de la Recherche Scientifique (CNRS), priority 2009, dated 2013)", "key": {"[1]": {"tested_on": "dopaminergic neurons (TH+ neurons) in primary cultures of ventral mesencephalon", "test": "Neuritogenesis: total neuritic length per dopaminergic neuron in primary cultures of ventral mesencephalon", "type": "cell-based", "conditions": "Product 10 nM, 8 days culture, rat embryo ventral mesencephalon; untreated control = 100", "procedure": "Dissection. Dissection consists of extracting embryos from the uterus of a rat after fifteen days of gestation. The brain of each embryo is then dissected under magnifying binoculars in order to extract the ventral mesencephalus.\nSeeding. Mesencephalons are grouped in a flask containing 2 mL of L15 medium and then mechanically dissociated (30 repeat operations), 5 mL of L15 medium are added. The suspension is allowed to stand for 8 minutes. The 5 mL float is then recovered in a new flask and the cells are dissociated again (30 repeat operations). 5 mL of L15 is added again and the suspension is left to stand for 8 minutes. The 5 mL float is added to the previous float. The cells thus extracted are then centrifuged for 5 minutes at 1000 rpm^−1. The cell sediment is dissolved in a Neurobasal medium supplemented with 1% of B27, 1% of glutamine and 1% of a mixture of penicillin and streptomycin. The cells are then seeded at an appropriate dilution (0.6 embryos per well in 24-well plates and 0.4 per well in 48-well plates). The cultures are incubated at 37° C. in a wet atmosphere enriched with 5% CO2 in 24-well or 48-well plates.\nTreatment. After 24 hours, two-thirds of the medium in each well is replaced by a new medium enriched with the product to be tested at the appropriate dilution. The medium is replaced in the same way after 4 days of culture.\nImmunohistochemistry. After 8 days culture, the cells are fixed by a solution of 4% formaldehyde and then washed three times with PBS. The cells are then submitted to anti-tyrosine hydroxylase (TH) immunohistochemistry, developed by a secondary antibody coupled to a fluorophore emitting in the red (Cy3).\nAnalyses. Neuroprotection is evaluated by counting positive TH neurons with 10 fields per well directly under an inverted fluorescence microscope, reported as a percentage of the untreated control. Experiments are done on three wells per condition. Three independent experiments are done under these conditions. The total neuritic length per cell is calculated using Explora Nova's Neurite Outgrowth software on 60 to 100 neurons photographed independently per condition.\nPrimary cultures of ventral mesencephalon of rat embryos after 15.5 days of gestation under conditions causing spontaneous death of dopaminergic neurons, are maintained in the presence or absence of the compounds to be tested for 8 days. After fixing, the cultures are submitted to immunocytochemistry directed against tyrosine hydroxylase, a specific marker of dopaminergic neurons.\nNeuritogenesis is quantified by measuring the total neuritic length per dopaminergic neuron (neuritic length/TH^+ neuron) using an image analyser on a minimum of sixty photographed neurons per condition (10-30% of all dopaminergic neurons).\nAll experiments were done by comparison with a positive control, dibutyryl-AMP cyclic (db-AMPc) (Mourlevat S. et al. Mol. Pharmacol. 2003, 64 (3), 578-586)."}, "[2]": {"test": "Study of the passage through the blood-brain barrier (HPLC-MS/MS of brain extracts)", "type": "in vivo, mice", "conditions": "for average concentration of compound 2c in brain extracts: 5-day sub-chronic, ± SEM, n=8", "procedure": "The purpose of this study is to use HPLC coupled with a mass spectrometer to verify the presence of molecule 2c according to the invention […] hydrochloride of molecule 2c (2c/HCl) by oral or intra-peritoneal (IP)pathway.\nAnimals: Male RjOrl: SWISS mice approximately 5 weeks old and weighing between 20 and 24 g on arrival (from the R Janvier Breeding Centre, France) are kept in the animal house at constant temperature (22±1° C.) and under controlled hygrometry (55±20%) with a 12 hours light/darkness cycle (8 h00-20 h00). The mice were allowed free access to food and drink during the acclimatisation and study period. All experiments took place in accordance with the conditions defined in decree No. 2001-464, May 29, 2001 dealing with experiments on animals.\nTreatments: Two 5-day sub-chronic treatments were done (oral or intra-peritoneal pathway): • Treatment by Intra-Peritoneal Pathway (IP):\nThe solution of hydrochloride of 2c/HCl to be injected is prepared in the carrier (10% Tween20+20% DMSO+70% NaCl at 09% in water) at a concentration of 2.0 g/L. Three groups were formed: • (1) mice that received the carrier through the IP pathway, at 10 mL/kg (group N, n=4), • (2) mice treated with 2c/HCl by IP pathway, at 20 mg/kg and at 10 mL/kg (group R, n=6), and • (3) Control mice that received no treatment (n=2).\nThe treated mice R4, R5 and R6 and the carrier mice N1, N2, N3 and N4 received the following treatments:\nThe solution of hydrochloride of 2c to be administered is prepared in the carrier (0.5% Tween80+99.5% carboxy-methyl cellulose at 1%, in 0.9% NaCl in water) at a concentration of 15.0 g/L.\n(2) mice treated with 2c/HCl by oral pathway at 150 mg/kg and at 10 mL/kg (Group B, n=6), and\nAll mice were treated twice per day for 4 days. On the 5th day, they received a final treatment and were euthanized between 3 h00 and 7 h30 after this last treatment, according to the following scheme:\nEuthanasia: The mice are anaesthetised by the injection of 0.1 mL of a solution of sodium pentobarbital at 6% and an perfusion is then done on the mice so as to remove all traces of blood from the brain, with an 0.9% NaCl solution that contains heparin (200 μL of heparin choay at 5000 UI/mL in 1 liter of 0.9% NaCl). An perfusion with a minimum of 50 mL of this solution is done on each animal. The mouse brain is removed. The cerebellum, the brain stem and olfactory bulbs are eliminated.\nThe 3 parts of the brain are frozen in isopentane at −30° C. for one minute, and then kept separately at −80° C. […]\nHowever, only parts 1 of the mice brains were extracted and analysed so as to keep samples for future analyses. […]\nInstrumentation and conditions for analysis of compound 2c: Detection and quantification based on the area of the peaks are done using HPLC-MS/MS, in MRM mode. […]"}}, "data": [{"smiles": "CCCCCCCCCCCCCCCCNCCc1c[nH]c2ccccc12", "note": "[Compound 2c, N-(2-(1H-indol-3-yl)ethyl)hexadecan-1-amine]", "values": [{"measurement": "Neuritic length/TH+ neuron, % relative to control ± SEM", "setting": "[1]", "result": "197.0 ± 14.0", "unit": "%"}, {"measurement": "average concentration of compound 2c in brain extracts", "setting": "[2]; mice, IP, 2c/HCl 20 mg/kg", "result": 14.73, "unit": "ng/mL"}, {"measurement": "crossing of the BBB in vivo", "setting": "[2]; mice, after IP and after per os administration of 2c/HCl", "result": "capable of crossing the BBB in vivo"}, {"measurement": "average concentration of compound 2c in brain extracts", "setting": "[2]; mice, per os, 2c/HCl 150 mg/kg twice per day (300 mg/kg/d)", "result": 21.25, "unit": "ng/mL"}, {"measurement": "brain concentration after per os treatment relative to IP treatment", "setting": "[2]; per os 300 mg/kg/d vs IP 20 mg/kg/d", "result": "about 1.5 times"}]}]}
